Test results taken from article PMC9146896, “Uracil as a Zn-Binding Bioisostere of the Allergic Benzenesulfonamide in the Design of Quinoline–Uracil Hybrids as Anticancer Carbonic Anhydrase Inhibitors” (Pharmaceuticals, 2022).

Experiments:
hCA IX = hCA IX (Homo sapiens, UniProt Q16790); assay: Carbonic anhydrase inhibition, colorimetric method (BioVision CA Inhibitor Screening Kit); settings: for Selectivity index I/IX: hCA IX over hCA I; for Selectivity index II/IX: hCA IX over hCA II
hCA II = hCA II (Homo sapiens, UniProt P00918); assay: as above
hCA I = hCA I (Homo sapiens, UniProt P00915); assay: as above
Chain of hCA I (P00915 whole entry): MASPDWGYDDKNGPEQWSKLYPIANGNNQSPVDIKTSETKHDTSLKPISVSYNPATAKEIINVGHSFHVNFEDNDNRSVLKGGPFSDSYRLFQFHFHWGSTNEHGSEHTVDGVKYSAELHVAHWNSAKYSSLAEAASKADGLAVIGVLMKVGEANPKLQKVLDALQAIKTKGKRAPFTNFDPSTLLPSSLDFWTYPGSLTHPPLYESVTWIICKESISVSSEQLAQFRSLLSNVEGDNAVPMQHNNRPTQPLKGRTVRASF

hCA XII = hCA XII (Homo sapiens, UniProt O43570); assay: as above; settings: for Selectivity index I/XII: hCA XII over hCA I; for Selectivity index II/XII: hCA XII over hCA II
Chain of hCA XII (O43570 25-354): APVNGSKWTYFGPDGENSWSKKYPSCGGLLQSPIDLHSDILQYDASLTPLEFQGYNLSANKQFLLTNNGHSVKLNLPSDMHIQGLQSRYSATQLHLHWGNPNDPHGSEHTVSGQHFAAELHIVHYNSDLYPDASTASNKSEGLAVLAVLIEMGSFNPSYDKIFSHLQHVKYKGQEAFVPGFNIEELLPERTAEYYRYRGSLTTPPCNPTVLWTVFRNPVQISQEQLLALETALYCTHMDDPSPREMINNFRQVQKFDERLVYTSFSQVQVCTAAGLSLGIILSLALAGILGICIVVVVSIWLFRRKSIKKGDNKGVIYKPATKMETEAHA

[1] = tested on: breast cancer cell line (MCF-7); assay: Antiproliferative activity, MTT assay under hypoxic conditions; settings: Homo sapiens, MCF7, read-out: Cytotoxicity IC50 MCF7
Bcl-2 [2] = assay: Assessment of apoptotic marker levels: Bcl-2 in A549; assay type: cell-based
Excerpt: (§1) The two cytoplasmic proteins, B-cell lymphoma protein 2 (Bcl-2) and its associated X protein (Bax), are essential for apoptosis in normal cells. Bax is a promoter and Bcl-2 is an inhibitor of apoptosis. Thus, the effect of 10d and 10l on apoptotic markers Bax and Bcl-2 in a breast cancer cell line (MCF-7) and a lung cancer cell line (A549) has been estimated.

Bax [3] = assay: Assessment of apoptotic marker levels: Bax in A549; assay type: cell-based
Excerpt: as §1

Bcl-2 [4] = assay: Assessment of apoptotic marker levels: Bcl-2 in MCF-7; assay type: cell-based
Excerpt: as §1

Bax [5] = assay: Assessment of apoptotic marker levels: Bax in MCF-7; assay type: cell-based
Excerpt: as §1

Compound	IC50 (hCA IX) [nM]	Ki (hCA IX) [nM]	Selectivity index I/IX (hCA IX)	Selectivity index II/IX (hCA IX)	IC50 (hCA II) [nM]	Ki (hCA II) [nM]	IC50 (hCA I) [nM]	Ki (hCA I) [nM]	IC50 (hCA XII) [nM]	Ki (hCA XII) [nM]	Selectivity index I/XII (hCA XII)	Selectivity index II/XII (hCA XII)	melting point [°C]	IC50 [1] [µM]	Bcl2 (Bcl-2 [2]) [nm/mL]	Bax (Bax [3]) [pg/mL]	Bcl2 (Bcl-2 [4]) [nm/mL]	Bax (Bax [5]) [pg/mL]
Nc1c(/N=C/c2cc3ccccc3[nH]c2=O)c(=O)[nH]c(=O)n1Cc1ccccc1 [Compound 10b, (E)-6-Amino-1-benzyl-5-(((2-oxo-1,2-dihydroquinolin-3-yl)methylene)amino) pyrimidine-2,4(1H,3H)-dione]	630	350	1.60	1.81	1140	630	1010	560	350	190	2.88	3.24	280 to 282	–	–	–	–	–
Cc1cccc2cc(/C=N/c3c(N)n(C)c(=S)[nH]c3=O)c(=O)[nH]c12 [Compound 10g, (E)-3-(((6-Amino-1-methyl-4-oxo-2-thioxo-1,2,3,4-tetrahydropyrimidin-5-yl)imino)methyl)-8-methylquinolin-2(1H)-one]	1080	600	1.99	3.10	3360	1860	2160	1200	330	180	6.47	10.05	265 to 267	–	–	–	–	–
CN[C@@H]1C[C@H]2O[C@@](C)([C@@H]1OC)n1c3ccccc3c3c4c(c5c6ccccc6n2c5c31)C(=O)NC4 [Staurosporine, staurosporine, reference compound]	–	–	–	–	–	–	–	–	–	–	–	–	–	6.92 ± 0.18	3.78 ± 0.14	310.5 ± 9.7	2.829 ± 0.07	381.8 ± 11.4
COc1ccc2[nH]c(=O)c(/C=N/c3c(N)[nH]c(=O)[nH]c3=O)cc2c1 [Compound 10h, (E)-6-Amino-5-(((6-methoxy-2-oxo-1,2-dihydroquinolin-3-yl)methylene)amino) pyrimidine-2,4(1H,3H)-dione]	600	330	5.39	7.52	4500	2490	3230	1780	400	220	8.00	11.16	275 to 277	–	–	–	–	–
CCn1c(N)c(/N=C/c2cc3cccc(C)c3[nH]c2=O)c(=O)[nH]c1=O [Compound 10f, (E)-6-Amino-1-ethyl-5-(((8-methyl-2-oxo-1,2-dihydroquinolin-3-yl)methylene)amino)pyrimidine-2,4(1H,3H)-dione]	270	140	1.23	2.99	790	440	330	180	170	90	1.95	4.72	278 to 280	–	–	–	–	–
CCn1c(N)c(/N=C/c2cc3cc(OC)ccc3[nH]c2=O)c(=O)[nH]c1=O [Compound 10j, (E)-6-Amino-1-ethyl-5-(((6-methoxy-2-oxo-1,2-dihydroquinolin-3-yl)methylene)amino)pyrimidine-2,4(1H,3H)-dione]	870	480	1.02	2.98	2600	1440	890	490	620	340	1.43	4.18	287 to 289	–	–	–	–	–
Nc1[nH]c(=O)[nH]c(=O)c1/N=C/c1cc2ccccc2[nH]c1=O [Compound 10a, (E)-6-Amino-5-(((2-oxo-1,2-dihydroquinolin-3-yl)methylene)amino)pyrimidine-2,4(1H,3H)-dione]	250	140	3.88	2.09	520	290	970	530	320	170	3.05	1.65	270 to 272	–	–	–	–	–
COc1ccc2[nH]c(=O)c(/C=N/c3c(N)n(C)c(=O)[nH]c3=O)cc2c1 [Compound 10k, (E)-6-Amino-5-(((6-methoxy-2-oxo-1,2-dihydroquinolin-3-yl)methylene)amino)-1-methyl pyrimidine-2,4(1H,3H)-dione]	1280	710	1.66	5.14	6570	3630	2120	1170	540	300	3.96	12.26	293 to 295	–	–	–	–	–
Cn1c(N)c(/N=C/c2cc3ccccc3[nH]c2=O)c(=O)[nH]c1=S [Compound 10e, (E)-3-(((6-Amino-1-methyl-4-Oxo-2-thioxo-1,2,3,4-tetrahydropyrimidin-5-yl)imino)methyl) quinolin-2(1H)-one]	1370	760	0.91	0.88	1210	670	1250	690	590	330	2.12	2.06	284 to 286	–	–	–	–	–
COc1ccc2[nH]c(=O)c(/C=N/c3c(N)n(Cc4ccccc4)c(=O)[nH]c3=O)cc2c1 [Compound 10i, (E)-6-Amino-1-benzyl-5-(((6-methoxy-2-oxo-1,2-dihydroquinolin-3-yl)methylene)amino) pyrimidine-2,4(1H,3H)-dione]	910	510	2.31	1.17	1070	590	2110	1170	230	130	9.07	4.60	291 to 293	–	–	–	–	–
CCn1c(N)c(/N=C/c2cc3ccccc3[nH]c2=O)c(=O)[nH]c1=O [Compound 10c, (E)-6-Amino-1-ethyl-5-(((2-oxo-1,2-dihydroquinolin-3-yl)methylene)amino)pyrimidine-2,4(1H,3H)-dione]	400	220	4.37	1.65	660	370	1760	970	490	270	3.62	1.37	290 to 292	–	–	–	–	–
